Our source for the GI50 and TGI values is PubChem BioAssay (NCI).

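Interpolation was linear, between the two tested concentrations surrounding the appropriate level; five concentrations were tested over 48 hours in 96-well plates. The concentration for 50% growth inhibition is given as GI50. TGI marks complete inhibition of growth.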

What all share (assay): DTP human tumour cell line panel, 48 h
The subject of test [1] is SF-295 CNS.
In test [2] the test system is MCF7 breast.
For test [3], the system named is HOP-62 NSCLC.
Test [4] relates to M14 melanoma.
In test [5] the test system is 786-0 renal.
The test system of test [6] is NCI-H460 lung.
Test [7] concerns SN12C renal.

As a reminder, the GI50 is the concentration giving 50% growth inhibition. As usually defined, the TGI is the concentration at which net growth stops.

As for `Cc1cc(Nc2ccc(OCc3ccccc3)cc2)nc2cc(O)ccc12`, the GI50 in test [1] is 2.23 µM; in test [2] it was 3.32 µM; in test [3] it was 11.7 µM; in test [4], 2.39 µM; in test [5], 4.51 µM; in test [6] it was 3.09 µM. The GI50 in test [7] was 5.75 µM. Besides, the TGI is 5.36 µM in test [1]; 14.2 µM in test [2]; 26.5 µM in test [3]; 6.15 µM in test [4]; 17.2 µM in test [5]; 10.2 µM in test [6]. This molecule also displayed a TGI in test [7] of 20.3 µM.

With `CC(C)(C)N1CCC1CN` (centres undefined), the GI50 in test [1], in test [2], in test [3], in test [4], in test [5] and in test [6] was above 100 µM throughout. Further, the GI50 in test [7] is above 100 µM. The TGI in test [1], in test [2], in test [3], in test [4], in test [5] and in test [6] was above 100 µM in each case. In addition, the total growth inhibition concentration (TGI) in test [7] is above 100 µM.

`CSC1=Nc2c(c(C)c(-c3ccccc3)n2CCCN2CCCCC2)C2=NC(=O)C[C@H](C)N12`: the GI50 is 2.54 µM in test [1]; 2.72 µM in test [2]; 3.11 µM in test [3]; 3.68 µM in test [4]; 4.48 µM in test [5]; 3.27 µM in test [6]. Moreover, the GI50 in test [7] is 2.42 µM. Besides, the TGI stood at 9.19 µM in test [1]; 11.3 µM in test [2]; 15.8 µM in test [3]; 16.1 µM in test [4]; 36.5 µM in test [5]; 12.4 µM in test [6]. In test [7], this molecule displayed a TGI of 20.9 µM.

In the case of `O=C(c1ccco1)c1nc2cc(C(F)(F)F)ccc2nc1C(F)(F)F`, the GI50 was above 100 µM in test [1]; 40.6 µM in test [2]; 71 µM in test [3]; above 100 µM in test [4]; above 100 µM in test [5]; above 100 µM in test [6]. Also, the GI50 in test [7] is above 100 µM. Besides, the TGI in test [1], in test [2], in test [3], in test [4], in test [5] and in test [6] was above 100 µM in each case. For the same molecule, the TGI in test [7] is above 100 µM.

As to `O=C(COc1ccc(/C=C2\COc3ccccc3C2=O)cc1)Nc1nccs1`, the GI50 is 3.1 µM in test [1]; 3.92 µM in test [2]; 16.8 µM in test [3]; 6.71 µM in test [4]; 13.9 µM in test [5]; 18.6 µM in test [6]. In addition, in test [7], the GI50 is 5.69 µM. Further, the TGI in test [1] was 12.8 µM; in test [2], 14.2 µM; in test [3], 33.1 µM; in test [4] it was 20 µM; in test [5], 28.1 µM; in test [6], 64.6 µM. The molecule also showed a TGI in test [7] of 25.7 µM.

Regarding `CC[C@@H]1[C@@H](C)O[C@@](O)([C@@H](C)[C@H](O)[C@H](C)[C@H]2OC(=O)/C=C/C=C/[C@H](C)[C@@H]([C@@H](C)[C@@H](O)[C@H](C)[C@@]3(O)C[C@@H](O[C@H]4C[C@@H](O)[C@H](O)C(C)O4)[C@H](CC)[C@@H](C)O3)OC(=O)/C=C/C=C/[C@@H]2C)C[C@H]1O[C@@H]1C[C@@H](O)[C@H](O)C(C)O1` (some centres undefined), the GI50 in test [1] was 0.061 µM; in test [2], 0.0843 µM; in test [3], 0.073 µM; in test [4], 0.0653 µM; in test [5], 0.125 µM; in test [6], 0.0569 µM. Moreover, in test [7], the GI50 was 0.0584 µM. Besides, the TGI in test [1] stood at 0.132 µM; in test [2], 0.287 µM; in test [3] it was 0.171 µM; in test [4] it was 0.142 µM; in test [5] it was 0.464 µM; in test [6], 0.115 µM. This molecule also registered a TGI in test [7] of 0.126 µM.

Regarding `CN1CCC(COc2cnc(-c3cccc(Cn4nc(-c5cccc(C#N)c5)ccc4=O)c3)nc2)CC1`, the GI50 was 0.771 µM in test [1]; 3.46 µM in test [2]; 4.24 µM in test [3]; 1.96 µM in test [4]; 1.97 µM in test [5]; 3.58 µM in test [6]. In test [7], the GI50 was 6.89 µM. Also, the TGI in test [1] was 16.5 µM; in test [2], 14.9 µM; in test [3] it was 14.2 µM; in test [4] it was 3.64 µM; in test [5], 3.86 µM; in test [6], 12.3 µM. The same molecule had a TGI in test [7] of 19.6 µM.

Regarding `NS(=O)(=O)OCC1OC(n2cnc3cncnc32)C(O)C1O` (centres undefined), the GI50 in test [1] was 0.0279 µM; in test [2] it was 0.0185 µM; in test [3], below 0.01 µM; in test [4], 0.03 µM; in test [5] it was 0.0228 µM; in test [6], 0.024 µM. For the same molecule, the GI50 in test [7] was below 0.01 µM. Moreover, the TGI turned out to be 0.12 µM in test [1]; 0.0806 µM in test [2]; 0.0143 µM in test [3]; 0.0944 µM in test [4]; 0.0693 µM in test [5]; 0.0762 µM in test [6]. Also, in test [7], the TGI came to 0.0369 µM.

For `CC(C)N1CC2CN(Cc3ccccc3)CC(C1)C2=O`, the TGI in test [1], in test [2], in test [3], in test [4], in test [5] and in test [6] was above 100 µM in each case. The molecule further had a TGI in test [7] above 100 µM.

Consider `COC1C(CO)OC(n2c3ccccc3c3c4c(c5c6ccccc6[nH]c5c32)C(=O)NC4=O)C(O)C1O` (centres undefined), for which the GI50 in test [1] is 0.129 µM; in test [2] it was 0.0336 µM; in test [3], 0.0514 µM; in test [4] it was 0.0441 µM; in test [5] it was 0.0467 µM; in test [6] it was 0.848 µM. Besides, the GI50 in test [7] is below 0.0187 µM. In addition, the TGI in test [1] stood at 0.673 µM; in test [2], 2.07 µM; in test [3], 1.2 µM; in test [4], 0.347 µM; in test [5], 1.12 µM; in test [6], 6.61 µM. The TGI in test [7] turned out to be 0.111 µM.

Regarding `C[C@]12CCc3nc(Nc4cccc(O)c4)sc3C1=CC[C@@H]1[C@@H]2CC[C@]2(C)/C(=N\NC(N)=S)CC[C@@H]12`, the GI50 in test [1] was 1.2 µM; in test [2], 1.52 µM; in test [3] it was 1.86 µM; in test [4] it was 1.96 µM; in test [5] it was 1.44 µM; in test [6] it was 1.96 µM. Further, the GI50 in test [7] is 1.98 µM. Besides, the TGI in test [1] stood at 3.11 µM; in test [2], 3.13 µM; in test [3] it was 4.07 µM; in test [4], 5 µM; in test [5], 4.31 µM; in test [6], 4.05 µM. For the same molecule, the TGI in test [7] was found to be 5.31 µM.

Consider `CN(C)c1ccc(/C=C/c2ccnc3c(O)cccc23)cc1`, for which the GI50 is 1.06 µM in test [1]; 0.371 µM in test [2]; 0.469 µM in test [3]; 0.304 µM in test [4]; 0.886 µM in test [5]; 0.363 µM in test [6]. Moreover, the GI50 in test [7] was 0.529 µM. Also, the TGI in test [1] was above 100 µM; in test [2], above 100 µM; in test [3], above 58.9 µM; in test [4], 1.58 µM; in test [5], above 26.2 µM; in test [6] it was above 100 µM. Besides, the total growth inhibition concentration (TGI) in test [7] is above 100 µM.

In the case of `COC(=O)[C@@H](C)C[C@H](Cc1cn(C)c2ccccc12)NC(=O)c1csc([C@@H](C[C@H](C(C)C)N(C)C(=O)[C@@H](NC(=O)[C@H]2CCCCN2C)C(C)C)OC(C)=O)n1`, the GI50 was 0.024 µM in test [1]; 0.00524 µM in test [2]; 0.0133 µM in test [3]; 0.0121 µM in test [4]; 0.0545 µM in test [5]; 0.0101 µM in test [6]. Further, in test [7], the GI50 is 0.0232 µM. Moreover, the TGI is above 16.7 µM in test [1]; above 16.7 µM in test [2]; above 16.7 µM in test [3]; 0.645 µM in test [4]; above 13 µM in test [5]; above 6.11 µM in test [6]. The TGI in test [7] was above 16.7 µM.

As to `Nc1c(C(=O)c2ccc(-c3cccnc3)cc2)cnn1-c1ccc(F)cc1`, the GI50 in test [1] was above 25 µM; in test [2] it was above 25 µM; in test [3], above 18.7 µM; in test [4] it was above 25 µM; in test [5], above 18.4 µM; in test [6] it was above 14.2 µM. Moreover, the GI50 in test [7] is above 19.5 µM. The TGI in test [1], in test [2], in test [3], in test [4], in test [5] and in test [6] was above 25 µM throughout. In test [7], this molecule came in with a TGI above 25 µM.
